Results reported in patent publication US5141627A, “Chelators whose affinity for calcium ion is increased by illumination” (The Regents of the University of California, priority 1989, dated 1992).
One block for each molecule: values may come before it. Bridges are numbered along the chain shown (N, C = ends). Where no end group is shown, it is not given here.

Columns and labels:
[1] = Mg2+ affinity in Mg/EGTA buffers; format: binding; settings: after photolysis; 0.1-0.15M ionic strength, pH 7.0-7.4, 20-23° C.; read-out: Kd (Mg2+), after photolysis
Experimental: (§1) Ca^2+ -binding constants for chelators before and after photolysis were determined by monitoring UV spectra during titration of EGTA or HEEDTA buffers to varying free Ca^2+ levels.
Free [Mg^2+ ] was likewise controlled by Mg/EGTA buffers, assuming an apparent dissociation constant for the Mg.EGTA complex (including its monoprotonated form) of 6 mM at pH 7.60 in 0.1M ionic strength; see R. Y. Tsien, et al. (1986) and A. E. Martell, et al. (1974).

[2] = Ca2+ affinity by UV spectra during titration of EGTA or HEEDTA buffers; format: binding
Experimental: (§2) The titration was done at 22° C. with 10 mL of 100 mM KCl, 10 mM K-MOPS, 10 mM K2 H.HEEDTA, and 14 […] diazo-2 as starting materials, adjusting the pH to 7.24, recording the spectrum, and then discarding 1.0 mL of this solution and replacing with 1.0 mL of 100 mM KCl, 10 mM K.MOPS, 10 mM KCa.HEEDTA, 14 μM diazo-2, readjusting the pH to 7.24, and recording the spectra, which was then in 9 mM K2H.HEEDTA. Subsequent iterations to reach n mM KCa.HEEDTA, (10-n) mM HEEDTA, n=2-10, were done by discarding 10.0/(11-n) mL and replacing with equal volumes of the 10mM KCa.HEEDTA, 14 μM diazo-2 stock. After n=10 had been reached to give free Ca^2+ between 10^-5 and 10^-4 M, addition of 1 mM CaCl2 had no further effect on the spectrum. For clarity only six spectra are including in the figure, n=0, 2, 4, 6, 8, and 10. Each spectrum is labeled with the calculated free [Ca^2+ ] imposed by the HEEDTA buffer, assuming a log effective stability constant of 5.55 at pH 7.24.
(§3) The phenylacetate was produced by irradiating a 30 μM solution of diazo-2 in 100 mM KCl, 10 mM Tris.HCl, 10 mM K2 H.HEEDTA, pH 8.40, with Spectroline lamp at 365 nm to completion. The titration was then performed as in A but the pH was maintained at 8.40, at which the calculated log effective stability is constant for HEEDTA was 6.60.
as §1
Either the ratio of, for example, [Ca.EGTA] to free [EGTA] was adjusted at a constant pH, or the pH was varied while [Ca.EGTA]=[EGTA]. These two approaches gave equivalent answers for pH>7 whenever directly tested, because of the pH insensitivity of BAPTA-like ligands (see FIG. 1 legend for more details). The apparent dissociation constants of Ca.EGTA and Ca.HEEDTA were calculated as described by R. Y. Tsien (1980); see also R. Y. Tsien, et al. (1986), S. R. Adams, et al. (1980), Grynkiewicz, et al., (1985), and Jackson, et al. (1987).

[3] = Yield of high affinity chelator / low-affinity side product after photolysis; format: physicochemical
Experimental: Because of the direct conjugation of the dialkylamine moiety with the diazoketone group, diazo-2 has a large absorbance in the 350-400 nm range, which shifts 50 nm to shorter wavelengths on binding Ca^2+ (FIG. 1A). The dissociation constant for Ca^2+ is relatively high, at 2.2 μM, due to the electron withdrawing ability of the carbonyl group. Photolysis occurs at 365 nm with a quantum yield of 0.030. The peak at […] in zero Ca^2+ decreases to near baseline giving a spectrum similar to that of unsubstituted BAPTA, although a small peak remains at 355 nm (FIG. 1B). […] The reaction of diazo-2 with dilute aqueous acid should give the same product whose absorbance spectrum indeed matched that of the residual peak at 355 nm after photolysis in low Ca^2+. […] Once the extinction coefficient for the hydroxyacetyl derivative was known, the amount of the side product arising from photolysis is calculated to be about 10%.

[4] = Quantum efficiency and completion of photolysis; format: physicochemical
Experimental: Spectra were obtained after 0, 2, 5, 9, 16, 28, 46, 80, 150, 285, 505 and 903 sec of 365-nm illumination at 7.82×10^- 9 einsteins cm^-2 s^-1 from Spectroline lamp. For clarity only the 0-, 9-, 28-, 46-, 80-, 150-, and 505-s spectra are reproduced herein. The 505- and 903-s spectra were identical, confirming completion of photolysis after those times. Solutions were at 22±2° C.
The method was as described in FIG. 1B except that the EGTA was replaced by 2 mM CaCl2, and spectra were measured after 0-, 50-, 100-, 203-, 412-, 840-, 1730-, 4080-, and 8000-s illumination. The last two spectra were identical, confirming completion. For clarity the 50- and 8000-s spectra are omitted.
The photolysis quantum efficiencies of diazo chelators were determined by alternately irradiating a buffered solution of the substrate with a known intensity of longwave UV light, and measuring the absorbance spectrum, in apparatus described by S. R. Adams, et al. (1988), supra.

[5] = Absorbance spectra of free and Ca2+-bound chelators; format: physicochemical
Experimental: as §2, §3
Proton magnetic resonance spectra (^1 H NMR) were recorded on a Varian EM-390 90-MHz spectrometer in CDCl3 unless otherwise noted, and the chemical shifts are given in δ values relative to tetramethylsilane. Ultraviolet (UV) absorbance spectra were recorded on a Cary 210 or a Perkin-Elmer Lambda Array 3840 spectrophotometer at 20°±2° C. Melting points are in Centigrade and are uncorrected. Elemental analyses were performed by the Microanalytical Laboratory in the Department of Chemistry, University of California, Berkeley, Calif.

REF52 fibroblast cell = assay: Intracellular free Ca2+ in REF52 fibroblasts on vasopressin stimulation and UV photolysis (fluo-3); format: cell-based, Fisher rat; settings: 50 nM [arg8]-vasopressin
From the text: The tetraacetoxymethyl esters of diazo-2 and diazo-3 were synthesized. The acetoxymethyl (AM) groups mask the negative charges on the carboxylate functions, so the AM ester of diazo-2 and diazo-3 can easily diffuse across the cell membrane, which is largely impermeable to ions. Once inside the cell, non-specific esterases in the cell hydrolytically cleave the AM esters and restore diazo-2 and diazo-3 to their tetracarboxylate forms, which being polyanions, are trapped within the cell. […] Prior to the start of data acquisition (t=0), the REF52 fibroblast cell was loaded with diazo-2 and fluo-3. […] Its fluorescence quantum yield is enhanced about 40-fold by Ca^2+ binding, which occurs with a Kd of 400 nM.
Prior to the start of data acquisition, the REF52 fibroblast cell was loaded with fluo-3 and diazo-2 by incubation for 30 min at 25° C. DME medium containing 1 μM diazo-2/AM and 10 μM fluo-3/AM. Acquisition of fluo-3 fluorescence intensity images was begun at time 0. The fluorescence intensity data was converted to intracellular Ca^2+ concentrations using a calibration procedure previously described. The event markers correspond to 1) stimulating the cell with 50 nM [arg^8 ]-vasopressin,and 2) flashing the cell for 1 s with UV light.
The experimental conditions were the same as in (A) except that the cell wa loaded with fluo-3 and diazo-3 (instead of diazo-2) by incubation for 90 min at 25° C. in DME medium containing 10 μm fluo-3/AM and […] diazo-3/AM. The event markers correspond to 1) stimulating the cell with 50 nM [arg^8 ]-vasopressin, and 2) flashing the cell for 1 s of UV light.
For preliminary biological tests, Fisher rat embryo fibroblast of the REF52 cell line were cultured as described by J. P. Y. Kao, et al. (1989).
For testing diazo-2, REF52 cells were incubated for 30 min at 25° C. in Dulbecco's modified Eagle's medium, buffered at pH 7.4 with 20 mM HEPES and containing 1 μM diazo-2/AM and 10 μM fluo-3/AM. For control experiments using diazo-3, the cells were incubated for 90 min at 25° C. in DMEM, buffered to pH 7.4 with 20 mM HEPES and containing 1 μM diazo-3/AM and […] fluo-3/AM. After loading, the cells were gently washed, transferred into Hanks' Balanced Salt Solution containing 0.2 mM sulfinpyrazone to inhibit non-specific organic anion transport (see Tsien, 1989), and mounted on a 25° C. microscope stage for experimentation.
Flash photolysis of trapped cellular diazo-2 and the concomitant monitoring of intracellular free Ca^2+ concentration with fluo-3, a fluorescent Ca^2+ indicator, were performed using methodology and instrumentation described in A. Minta, et al (1989) and J. P. Y. Kao, et al. (1989). Briefly, output form a Xe arc lamp was passed through a monochromator to yield the 490 nm light used to probe the fluo-3 trapped intracellularly. The fluo-3 fluorescence images of cells were recorded using a SIT TV camera. Images were stored on a high-resolution monochrome laser disc recorder (Panasonic TQ-2028) for delayed processing. Photolyses were performed by briefly moving a chopper mirror to send broad-band UV from an XBO 75 W xenon arc lamp and UG-2 filter into the microscope instead of 490 nm fluo-3 excitation. The microscope objective (Nikon UV-CF, 40X) was chosen for its high UV transmission and numerical aperture (1.3). […] The same computer was used to analyze the fluorescence images acquired during the experiment.

Kd [1]: 2.6 mM
Kd ([2]; after photolysis, 0.1-0.15M ionic strength, 20-23° C., read-out: Kd (Ca2+), after photolysis): 55 nM
Kd ([2]; before photolysis, 0.1-0.15M ionic strength, pH 7.0-7.4, 20-23° C., read-out: Kd (Ca2+), before photolysis): 89000 nM
Photolysis yield (yield of high affinity Ca2+ chelator after photolysis) ([3]; after photolysis): 88
low-affinity side product on complete photolysis, expected ([3]; complete photolysis, expected): 19%
low-affinity side product on complete photolysis, measured ([3]; residual absorbance at 355 nm): 20%
quantum yield relative to diazo-2 ([4]; compared with diazo-2): approximately half that of diazo-2
Φ quantum efficiency of photolysis, +Ca2+ ([4]; saturating [Ca2+]): 0.015
Φ quantum efficiency of photolysis, free ([4]; zero [Ca2+]): 0.015
εmax, +Ca2+ ([5]; +Ca2+, at λmax): 42.3 10^-3, M^-1 cm^-1
λmax, +Ca2+ ([5]; +Ca2+, dominant peak at longest wavelength): 320 nm
εmax, free ([5]; free (zero Ca2+), at λmax): 46.0 10^-3, M^-1 cm^-1
λmax, free ([5]; free (zero Ca2+), dominant peak at longest wavelength): 371 nm
Molecule: [N-]=[N+]=CC(=O)c1ccc(N(CC(=O)O)CC(=O)O)c(OCCOc2cc(C(=O)C=[N+]=[N-])ccc2N(CC(=O)O)CC(=O)O)c1 [diazo-4, 1,2-bis(2-bis(carboxymethyl)amino-5-(diazoacetyl)phenoxy)ethane]
change in Ca2+ affinity upon photolysis ([2]; complete photolysis): 1600 fold

Kd ([2]; side product after photolysis of diazo-2, from deviation of Hill plot, read-out: dissociation constant of side product): ~1000 nM
amount of side product arising from photolysis ([3]; hydroxyacetyl derivative, from photolysis of diazo-2, calculated): about 10%
photosensitivity (in words) ([4]; product of diazo-2 with dilute aqueous acid): complete lack of photosensitivity
Molecule: Cc1ccc(N(CC(=O)O)CC(=O)O)c(OCCOc2cc(C(=O)CO)ccc2N(CC(=O)O)CC(=O)O)c1 [para-(2-hydroxyacetyl) derivative]

Molecule: [arg^8 ]-vasopressin: stimulus of the REF52 cell, 50 nM (CYFQNCPRG-NH2; disulfide 1-6; UniProt P01185 20-28, looked up) [reference compound]
[Ca2+]i response to stimulation (in words) (REF52 fibroblast cell): sharp but transient rise
[Ca2+]i plateau after stimulation (REF52 fibroblast cell; before UV): about 200 nM
